Measured values from patent US4478834A, “Dihydropyridines and their use in the treatment of asthma” (USV Pharmaceutical Corporation, priority 1983, dated 1984).

How the values were obtained:
[1] = system: Cyclic Nucleotide Phosphodiesterase (cNUC-PDE); test: Cyclic Nucleotide Phosphodiesterase (cNUC-PDE) Assay; type: biochemical; conditions: compounds initially tested at 100 μM; enzyme source (dog heart or rat mast cell) not given
Method: Cyclic Nucleotide Phosphodiesterase (cNUC-PDE) Assay: CNUC-PDE was measured by a modification of the one-step procedure described by Thompson et al. (1979). The reaction was carried out in 7 ml scintillation vials. The reaction mixture consisted of 5 mM MgCl2., 50 mM tris-(hydroxymethyl)aminomethane buffered to pH 8.0 at 37° C. with hydrochloric acid (Tris-chloride), 1-2×10^5 cpm ^3 H-labeled cyclic nucleotide substrate, appropriate concentration of non-labeled cyclic nucleotide, 25 μg/ml lyophilized Ophiophagus hannah venom and appropriate enzyme for linear reaction conditions. The timed reactions were initiated by the addition of an enzyme, incubated at 37° C. for appropriate times for linear reaction rates, and stopped with the addition of 0.8 ml of 50% (v/v) AG 1×8 (200-400 mesh) ion-exchange resin in 50% (v/v) ethanol-Tris-acetate buffer (pH 8.0). The vials were vortexed and the resin mixture allowed to equilibrate for 15 min at 4° C. Scintillation fluid (4.5 ml) was added and radioactivity quantitated in a liquid scintillation counter.
Dog Heart Enzyme Preparations: Mongrel dogs were overdosed with Nembutal® and their hearts surgically removed. […]
Mast Cell Enzyme Preparations: Peritoneal cells were collected and mast cells purified by a procedure similar to that described by Yurt et al., (1977). […] The cells ([…]) were counted with a haemocytometer. […]

guinea pig lung = guinea pig lung inhibition
Method: The activity of a compound is expressed as % inhibition of net antigen-induced histamine release. In the case of an active compound the concentration of the compound required for 50% inhibition for AIR (I50) is determined.

[2] = Blood pressure in spontaneously hypertensive [SHR] rats; type: in vivo, rat; conditions: intraperitoneal (ip) dose of 100 mg/Kg, over 2 hours duration
Method: In spontaneously hypertensive [SHR] rats (as described in Laffan, R. J., Patterson, A., Hitch, S. W., Jeunelot, Technique for Prolonged Continuous Recording of Blood Pressures of Unrestricted Rats, Cardiovascular Research, Vol. 6, pp. 319-24, 1972),3,10b-dihydro-2,4-dimethyl-5-oxo-5H[1]benzopyrano[3,4-C]pyridine-1-carboxylic acid ethyl ester (Example 4D) administered intraperitoneal (ip) dose of 100 mg/Kg reduced blood pressure by 17-22% over 2 hours duration.

| Compound | PDE inhibition [1] | guinea pig lung inhibition (guinea pig lung) | reduced blood pressure [2] |
| --- | --- | --- | --- |
| CCOC(=O)C1=C(C)NC(C)=C2C(=O)Nc3ccccc3C21 (stereo not drawn) [Example 3C, 3,5,6,10b-Tetrahydro-2,4-dimethyl-5-oxo-benzo[c][2,7]naphthyridine-1-carboxylic acid ethyl ester] | < 60% | < 50% |  |
| CCOC(=O)C1=C(C)NC(C)=C2C(=O)Oc3ccccc3C12 (stereo not drawn) [Example 4D, 3,10b-Dihydro-2,4-dimethyl-5-oxo-5H[1]benzo-pyrano[3,4-c]pyridine-1-carboxylic acid ethyl ester] |  |  | 17-22% |
